Measured values: US20230263783A1, “CANCER TREATMENT BY COMBINED INHIBITION OF POLO-LIKE KINASE AND MICROTUBULE POLYMERIZATION” (Massachusetts Institute of Technology, priority 2022, published 2023)
pEC50, pIC50: −log10 of the molar value. Where a SMILES comes first, the peptide text is derived from it. [ ]: non-standard residue; d: D form. The star is where a group is joined. Dolaproine = CO[C@@H]([C@@H]1CCCN1)[C@@H](C)C(=O)O; Dil = CC[C@H](C)[C@H](NC)[C@@H](CC(=O)O)OC; X1 = C[C@@H](N*)[C@@H](O)c1ccccc1; NMeV = CN[C@H](C(=O)O)C(C)C

Tests used:
[1] = relative to 2-ME; cited from earlier work
[2] = oral administration; cited from earlier work
[3] = cited from earlier work
[4] = test system: HCT116, NCI-H460, and taxane-resistant CXB1 colon carcinoma xenografts; set-up: dose or concentration left out as unconfirmed; settings: cited from earlier work
[5] = test system: Her2+ trastuzumab-resistant breast cancer; settings: via CDK1-dependent phosphorylation and inactivation of Bcl-2/xL; cited from earlier work
[6] = test system: panel of >50 other kinases; settings: in vitro; cited from earlier work
[7] = test system: C4-2 castrate resistant prostate cancer (CRPC) cells; assay: Relative viability after drug dose matrix (CellTiter-Glo, Bliss Independence) in C4-2 cells; assay type: cell-based; settings: for concentrations at which the more than additive reduction occurs / reduction in cancer cell viability of maytansinoid with Plk1 inhibitor versus each alone: C4-2 cells, with onvansertib; for reduction in cancer cell viability of maytansinoid with Plk1 inhibitor versus each alone: five days, free agents, FIGS. 5A and 5B
Experimental: All cell lines were cultured in a humidified incubator at 37° C. and with 5% CO2, were maintained sub-confluent and used for no more than 20 passages. Media was supplemented with 10% fetal bovine serum (FBS), contained 2 mM glutamine and lacked antibiotics, unless otherwise noted. A549, BT-20, CCD-1112sk, CCD-18co, CFPAC1, HCT 116, HeLa, HT-29, HT55, MCF7, MDA-MB-157, MDA-MB-231, MDA-MB-415, MDA-MB-436, MDA-MB-453, MDA-MB-468, SW48, T98G, U-2 OS, U-87 MG, CAOV3, COV362, and JIMT1 cells were grown in DMEM; 22RV1, AU565, C4-2, CAL33, COL0205,HCC38, HCT-15, KYSE150, LNCaP, LOVO, NCI-H1299, PC-3, ZR-75-1, HCC1419, HCC1569, HCC1954, ZR7530, OVCAR-4, OVCAR8 cells were grown in RPMI 1640; HT1197, HT1376, J82, UMUC3 cells were grown in MEM; OV90, TOV122D, TOV21G cells were grown in 1:1 MCDB105:Medial99 15% FBS; 59M, OAW28, OAW42 cells were grown in Advanced DMEM 0.023 IU/ml insulin; ES2, SKOV3 cells were grown in McCoy's 5A; JHOS2, JHOS4 cells were grown in 1:1 DMEM:HamF12; HUVEC cells were grown in EBM with EGM™-2 BULLETKIT™
For dose response experiments and experiments that examine synergy as a measure of change in relative viability, cells were grown in 384-well plates in triplicate. The following day the cells were subjected to a drug dose matrix that consisted of increasing concentrations of a Plk inhibitor, increasing concentrations of a microtubule polymerization inhibitor, and all pairwise combinations. Drugs were dissolved in DMSO and diluted in the appropriate cell growth media while maintaining a constant final concentration of DMSO. After five days, relative viability was assessed using […]-GLO™ (Promega) Luminescent Cell Viability Assay according to the manufacturer's recommendations. Luminescence was measured using an […]™ M200 Pro plate reader (Tecan Group Ltd.). […] The dose response plots (for example FIG. 1A) show sensitivity to increasing concentrations of a microtubule polymerization inhibitor in the absence or presence of a constant amount of Plk inhibitor. Bars represent the standard error of the mean. The concentration of Plk inhibitor chosen to presented was based on a ˜20-30% reduction of viability when that drug was used at that dose in isolation. The entire amount of greater-than-additive response observed in the dose matrix is the integrated volume between the observed and expected surfaces generated by the response matrix and is also known as Bliss Volume. Bliss Volume synergy metrics are presented in FIG. 3 as the fractional change in volume between the expected and observed response surfaces.

[8] = test system: growth factor activated endothelial cells; settings: cited from earlier work
[9] = test system: Her2+ breast cancer cell lines; assay: Viability dose matrix in panel of six Her2+ breast cancer cell lines; assay type: cell-based; settings: DM1 with onvansertib, five days, majority of six cell lines, FIGS. 8A-8F
Experimental: (§1) All cell lines were cultured in a humidified incubator at 37° C. and with 5% CO2, were maintained sub-confluent and used for no more than 20 passages. Media was supplemented with 10% fetal bovine serum (FBS), contained 2 mM glutamine and lacked antibiotics, unless otherwise noted. […]
(§2) For dose response experiments and experiments that examine synergy as a measure of change in relative viability, cells were grown in 384-well plates in triplicate. […] After five days, relative viability was assessed using […]-GLO™ (Promega) Luminescent Cell Viability Assay according to the manufacturer's recommendations. Luminescence was measured using an […]™ M200 Pro plate reader (Tecan Group Ltd.). […]

[10] = test system: ovarian cancer cell lines; assay: Viability dose matrix in panel of 14 ovarian cancer cell lines; assay type: cell-based; settings: DM4 with onvansertib, five days, FIGS. 6A-6N
Experimental: as §1, §2

UMUC3 = assay: Viability dose matrix in UMUC3 bladder cancer cells; assay type: cell-based; settings: MMAE with onvansertib, five days, FIG. 7D
Experimental: as §1, §2

[11] = test system: bladder cancer cell lines; assay: Viability dose matrix in panel of four bladder cancer cell lines; assay type: cell-based; settings: MMAE with onvansertib, five days, FIGS. 7A-7D
Experimental: as §1, §2

T47D cells [12] = settings: read-out: EC50 for caspase activation; cited from earlier work
T47D cells [13] = settings: read-out: GI50, cell proliferation; cited from earlier work
[14] = test system: variety of tumors, including those that express the multidrug resistance (MDR) phenotype; settings: read-out: IC50 against a variety of tumors; cited from earlier work

For `COc1cc2c(cc1O)CC[C@@H]1[C@@H]2CC[C@]2(C)C(=O)CC[C@@H]12` [2-methoxyestrone], the “loss in activity in vitro on oxidation of 2-ME to 2-methoxyestrone” value [1] is given as 10-to 100 fold.
In the case of `COc1ccc(S(=O)(=O)Nc2cccnc2Nc2ccc(O)cc2)cc1` [ABT-751], the “overall mean Tmax” value [2] is listed as “about 2 h” and the maximum tolerated dose ([3]; daily schedule, phase I) is listed as 250 mg/day.
In the case of `CC[C@@H]1C(=O)N(C)c2cnc(Nc3ccc(C(=O)N[C@H]4CC[C@H](N5CCN(CC6CC6)CC5)CC4)cc3OC)nc2N1C(C)C` [BI6727], the “growth of human carcinoma xenografts” value [4] is listed as “significantly inhibits the growth”, the “effect on T-DM1 resistance” value [5] is listed as “overcomes T-DM1 resistance” and the “inhibitory activity against a panel of >50 other kinases” value [6] is listed as “no inhibitory activity”. The “recommended dose for further development” value ([3]; advanced solid tumors, i.v. once every 3 weeks, based on overall tolerability) was 300 mg, the MTD ([3]; advanced solid tumors, i.v. once every 3 weeks) was 400 mg and the “MTD in combination with afatinib” value ([3]; advanced solid tumors) was 300 mg. For the same molecule, the “effect of the combination of TH588 with a Plk1 inhibitor” value ([7]; each Plk1 inhibitor in combination with TH588, relative viability) was “more than additive”.
In the case of `COc1cc(C(=O)c2c(C)oc3c(O)c(OC)ccc23)cc(OC)c1OC` [BNC-105], the “selectivity for growth factor activated endothelial cells compared to quiescent HUVECs” value [8] is listed as 81 fold.
For `COc1cc2cc(c1Cl)N(C)C(=O)C[C@H](OC(=O)[C@H](C)N(C)C(=O)CCS)C1(C)O[C@H]1[C@H](C)[C@@H]1C[C@@](O)(NC(=O)O1)[C@H](OC)/C=C/C=C(\C)C2` (stereo partly shown) [DM1], the “response to combined Plk1 inhibitor and DM1” value [9] was “greater than additive response”, the “concentrations at which the more than additive reduction occurs” value [7] was “sub-nanomolar” and the “reduction in cancer cell viability of maytansinoid with Plk1 inhibitor versus each alone” value [7] was “more than the additive reduction”.
With `COc1cc2cc(c1Cl)N(C)C(=O)C[C@H](OC(=O)[C@H](C)N(C)C(=O)CCC(C)(C)S)C1(C)O[C@H]1[C@H](C)[C@@H]1C[C@@](O)(NC(=O)O1)[C@H](OC)/C=C/C=C(\C)C2` (stereo partly shown) [DM4] the “cell lines with greater than additive responses to the drug combination” value [10] was “Ten of fourteen”, the “concentrations at which the more than additive reduction occurs” value [7] was “sub-nanomolar” and the “reduction in cancer cell viability of maytansinoid with Plk1 inhibitor versus each alone” value [7] was “more than the additive reduction”.
With `CC[C@H](C)[C@@H]([C@@H](CC(=O)N1CCC[C@H]1[C@H](OC)[C@@H](C)C(=O)N[C@H](C)[C@@H](O)c1ccccc1)OC)N(C)C(=O)[C@@H](NC(=O)[C@@H](NC)C(C)C)C(C)C` [MMAE, monomethyl auristatin E] (H-[NMeV]V[Dil][Dolaproine]-X1) the “response to the combination in UMUC3” value (UMUC3) was “very notable response” and the “response to the combination in bladder cancer cell lines” value [11] was “Varying amounts of greater than additive responses”.
For `COc1ccc(N(C)c2nc(Cl)nc3ccccc23)cc1` [MPI-0441138], the pEC50 (T47D cells [12]) is given as 8.70 and the GI50 (T47D cells [13]) is given as 2 nM.
In the case of `COc1ccc(NS(=O)(=O)c2c(F)c(F)c(F)c(F)c2F)cc1F` [T138067], the pIC50 [14] is given as 6.78 to 7.96.
